According to a melting point compilation (Tetko et al.; mined from patent text by program, amines drawn as free bases though some values may be those of a salt):

| SMILES | melting point |
| --- | --- |
| OCCN1CCN(C(c2ccccc2)(c2ccccc2)c2ccccc2)CC1 | 82 °C |
| CNc1nccc2c1nnn2Cc1ccccc1 | 269 to 273 °C |
| COCCNC(=O)c1cccc(NC(=O)Oc2ccccc2)c1 | 142 to 150 °C |
| CC(C)(C)NCCCCOc1ccccc1C(=O)Nc1cccc2[nH]ccc12 | 147 °C |
| CCC(=O)NC(C)(C)C | 90 to 92 °C |
| CN(C)CCc1nc(C(N)=O)c2n1-c1ccc(Cl)cc1C(c1ccccc1Cl)=NC2 | 249 to 251 °C |
| CCCCCc1c(C(C)C)nc(C(C)C)c(CO)c1-c1ccoc1 | 98 to 100 °C |
| O=C(Nc1c(F)cccc1F)c1ccc(-n2nc(C(F)(F)F)cc2C2CC2)c(F)c1 | 168 to 170 °C |
| N=C(Nc1cc(Cl)cc(NC(=O)/C=C/c2ccccc2Cl)c1)c1cccs1 | 123 to 124 °C |
| COC(=O)Cc1ccc2nc(Nc3ccccc3)oc2c1 | 155 to 157 °C |
| Cc1sc(-c2ccccc2)nc1COc1ccc(COc2ncccc2C=O)cc1 | 101 to 102 °C |
| CNC(=O)n1cc2c(n1)-c1ccc(Cl)cc1C(c1ccccc1F)=NC2 | 192 to 193 °C |
| CCCCN1C(=O)CC(=O)NC1=O | 107 to 108 °C |
| OCc1cc(F)nc(F)c1F | 48 to 49 °C |
| N#Cc1c(N2CCCCC2)cc(-c2ccc3ccccc3c2)c2c1Cc1ccccc1-2 | 142 to 144 °C |
| CCC1(O)CC(=O)OCc2c1cc1n(c2=O)Cc2c-1nc1ccc(Cl)cc1c2-c1ccccc1F (stereo not given) | > 250 °C |
| CC1CN(Cc2ccccc2)CC(NC(=O)c2n[nH]c3ccccc23)CN1C (stereo not given) | 162 to 163 °C |
| CNc1nc2ccccc2cc1N | 133 to 136 °C |
| COc1cc(OC)cc(N(C)S(=O)(=O)c2ccc(C)cc2)c1 | 110 to 111 °C |
| CC(C)(CCCCCCCCCCC(C)(C)C(Cl)C(=O)O)C(Cl)C(=O)O (stereo not given) | 103 to 112 °C |
| O=S1(=O)CNc2cccc3cccc1c23 | 206 to 207 °C |
| CC(C)(C)[C@H]1CC[C@H](N(Cc2ccc(C(=O)NC[C@H](O)C(=O)O)cc2)C(=O)Nc2cc(C(F)(F)F)cc(C(F)(F)F)c2)CC1 | 185 to 187 °C |
| CC(=O)N1CCc2ccc(C(=O)CCCC3CCN(Cc4ccc(F)cc4)CC3)cc2CC1 | 92 to 94 °C |
| Nc1cccc(CC(=O)NCc2ccccc2Br)c1 | 110 to 112 °C |
| Clc1ccc(-n2cc(-c3n[nH]c4ccccc34)nn2)cn1 | 272 to 280 °C |

| SMILES | melting point |
| --- | --- |
| Cc1c(C#N)sc2nc(-c3ccncc3)nc(N(C)CCO)c12 | 194 to 195 °C |
| Fc1ccccc1C1=NCc2cnc(-c3ccccc3)n2-c2ccc(Cl)cc21 | 241 to 243 °C |
| CCC(Oc1ccc(Cl)cc1)C(=O)OC1CC(O)C=C2C=CC(C)C(CCC3CC(O)CC(=O)O3)C21 (mixture of isomers) | 140 to 142 °C |
| CN1CCC(C2c3sccc3C=Cn3ncnc32)CC1 (stereo not given) | 137 °C |
| Nc1ncc(C2CCN(c3ccc([N+](=O)[O-])cc3)CC2)c(N)n1 | > 250 °C |
| O=CCCNC(=O)CN1CCN(CC(=O)O)CCN(CC(=O)O)CCN(CC(=O)O)CC1 | 115 to 120 °C |
| Nc1nc(Cl)cc(CCl)n1 | 126 to 128 °C |
| CCOC(=O)c1ncn2cc(Br)sc12 | 171 to 172 °C |
| CCC(C)CC(=O)OC1COC(OC(=O)CC(C)CC)CO1 (stereo not given) | 71 to 72 °C |
| CC(=O)Nc1ccccc1Oc1ccc(C#N)c(C#N)c1 | 152 to 154 °C |
| C=C(c1ccsc1C=O)c1cc(C(C)(C)C)cc2c1CCC2(C)C | 99 to 100 °C |
| CCCc1c(OCc2c(CCCCc3cccnc3)ccc(C(N)=O)c2OCC)ccc(C(C)=O)c1O | 107 to 109 °C |
| COc1ncccc1-c1ncc(OC2SCC(O)C(O)C2O)cc1F (stereo not given) | 141 °C |
| N#CC(c1ccccn1)c1cccs1 (stereo not given) | 48 to 50 °C |
| C=CCN1CCC2(CC1)c1ccccc1C(=O)c1c(OC)cccc12 | 115 to 117 °C |
| CCCCCCCCCCCC#Cc1cnccc1C=C(C(=O)O)C(=O)O | 175 to 177 °C |
| CCOC(=O)C(=CC=C(C#N)c1ccccc1)N(C)C | 67 °C |
| CCC(N=O)C(C)(C)Cl (stereo not given) | 85 to 86 °C |
| CC(=S)NCC1CN(c2ccc(N(C)C=O)c(F)c2)C(=O)O1 (stereo not given) | 105 to 107 °C |
| COC(=O)c1ccc(-c2csc(N3C(=O)OCC3(C)C)n2)cc1 | 176 to 179 °C |
| COc1cc2c(c(O)c1C)COC(C)C2 (stereo not given) | 143 to 145 °C |
| CCc1noc(C)c1-c1[nH]c2ccccc2c1CCCN(C)C | 131 to 133 °C |
| COC(=O)C1=C(C(=O)OC)c2c(sc3ccccc23)CC1 | 129 °C |
| Cc1ccc(C2=NNC(=O)CC2)cc1O | 216 to 218 °C |
| CCOC(=O)Cc1nnc(-c2ccc(OC)cc2)n1-c1ccc(OC)cc1 | 156 °C |

| SMILES | melting point |
| --- | --- |
| CCOC(=O)C(=NOC)c1nnc(C)s1 | 79 to 81 °C |
| [N-]=[N+]=Nc1ccc(S(=O)(=O)NCCc2ccc(CCO)cc2)cc1 | 80 to 82 °C |
| NS(=O)(=O)c1cccc(-c2cc(-c3nc(-c4ccc(C(F)(F)F)cc4)cc(C(F)(F)F)n3)ccn2)c1 | 237 °C |
| CCS(=O)(=O)NC(C(=O)NCCc1ccc(OC)c(OC)c1)c1ccc(Cl)cc1 (stereo not given) | 136 to 138 °C |
| Cc1cc2c(cc1C(F)(F)F)N(C(=O)Nc1ccc(OCc3ccccn3)nc1)CC2 | 219 to 220 °C |
| O=C(NCCCCCCOC(=O)N1CCC(O)CC1)Oc1ccc(Oc2ccccc2)cc1 | 48 to 55 °C |
| CC(=O)OC1CCC(c2ccccc2)CC1 (stereo not given) | 43 to 45 °C |
| Cc1oc(-c2ccc(C(F)(F)F)cc2)nc1COc1ccc(CN(O)C(=O)NN)cc1 | 94 to 95 °C |
| CC(C)(C)OC(=O)N1CCN(c2cccc(-c3cnc4[nH]cc(C(=O)C5(C)CCCCC5)c4n3)c2)CC1 | 212 to 213 °C |
| CC(C)n1c(=O)n(C)c(=O)c2cc(Cc3ccccc3)sc21 | 91 to 93 °C |
| COCn1cnc(Cl)c1Cl | 41 to 44 °C |
| O=C(Nc1ccc2ccc(Cl)nc2n1)c1ccccc1F | 222 °C |
| CS(=O)(=O)CCOCCn1cnc2c(N)nc3ccccc3c21 | 145 to 148 °C |
| O=C1OCCN1c1ccc([N+](=O)[O-])c(C(F)(F)F)c1 | 112 to 113 °C |
| O=C(O)c1ccc(Cl)cc1Oc1cccc(C(F)(F)F)c1 | 146 °C |
| O=C(O)c1ccc(N2C(=O)CCC2C(=O)O)c([N+](=O)[O-])c1 (stereo not given) | 235 to 237 °C |
| O=C1CCCC2=C1C(c1ccc(Cl)cc1)C1=C(CCCC1)N2 (stereo not given) | 253 to 254 °C |
| OC(c1ccccc1)(c1ccccc1)C(c1ccc(OCc2ccccc2)cc1)n1ccnc1 (stereo not given) | 204 °C |
| CC(=O)Nc1nc2c(Oc3cc(-c4ccc(C(F)(F)F)cc4)ncn3)cccc2s1 | 219 to 220 °C |
| OC1c2cc(Cl)ccc2OCC1n1ccnc1 (stereo not given) | 153 to 160 °C |
| CC(C)(CCl)C(=O)N(O)Cc1ccc(Cl)cc1Cl | 103 to 106 °C |
| N#Cc1cc(-c2ccc(Cl)c(Cl)c2)[nH]c1Br | > 200 °C |
| CC(=O)OCCCC1Oc2c(C)c(C)c(OC(C)=O)c(C)c2S1 (stereo not given) | 78 to 79 °C |
| O=C1CN(Cc2ccccc2)C(=S)N1 | 150 to 152 °C |
| Cc1c(F)cccc1C(=O)Nc1ccc(C(=O)N2Cc3ccccc3Cc3ccccc32)cc1Cl | 254 to 256 °C |
